Source: patent publication US20250020635A1, “ASSAY METHODS AND USES THEREOF FOR SCREENING ALZHEIMER'S DISEASE TREATMENT COMPOUNDS” (priority 2023, published 2025)

How the values were obtained:
His-PLCγ2 protein = target: T1, His-PLCγ2 protein (Homo sapiens, UniProt P16885); test: Affinity selection mass spectrometry (ASMS); assay type: binding; details: dose range 100-0.05 μM, PLCγ2 400 nM
T1 sequence (P16885 1-1265): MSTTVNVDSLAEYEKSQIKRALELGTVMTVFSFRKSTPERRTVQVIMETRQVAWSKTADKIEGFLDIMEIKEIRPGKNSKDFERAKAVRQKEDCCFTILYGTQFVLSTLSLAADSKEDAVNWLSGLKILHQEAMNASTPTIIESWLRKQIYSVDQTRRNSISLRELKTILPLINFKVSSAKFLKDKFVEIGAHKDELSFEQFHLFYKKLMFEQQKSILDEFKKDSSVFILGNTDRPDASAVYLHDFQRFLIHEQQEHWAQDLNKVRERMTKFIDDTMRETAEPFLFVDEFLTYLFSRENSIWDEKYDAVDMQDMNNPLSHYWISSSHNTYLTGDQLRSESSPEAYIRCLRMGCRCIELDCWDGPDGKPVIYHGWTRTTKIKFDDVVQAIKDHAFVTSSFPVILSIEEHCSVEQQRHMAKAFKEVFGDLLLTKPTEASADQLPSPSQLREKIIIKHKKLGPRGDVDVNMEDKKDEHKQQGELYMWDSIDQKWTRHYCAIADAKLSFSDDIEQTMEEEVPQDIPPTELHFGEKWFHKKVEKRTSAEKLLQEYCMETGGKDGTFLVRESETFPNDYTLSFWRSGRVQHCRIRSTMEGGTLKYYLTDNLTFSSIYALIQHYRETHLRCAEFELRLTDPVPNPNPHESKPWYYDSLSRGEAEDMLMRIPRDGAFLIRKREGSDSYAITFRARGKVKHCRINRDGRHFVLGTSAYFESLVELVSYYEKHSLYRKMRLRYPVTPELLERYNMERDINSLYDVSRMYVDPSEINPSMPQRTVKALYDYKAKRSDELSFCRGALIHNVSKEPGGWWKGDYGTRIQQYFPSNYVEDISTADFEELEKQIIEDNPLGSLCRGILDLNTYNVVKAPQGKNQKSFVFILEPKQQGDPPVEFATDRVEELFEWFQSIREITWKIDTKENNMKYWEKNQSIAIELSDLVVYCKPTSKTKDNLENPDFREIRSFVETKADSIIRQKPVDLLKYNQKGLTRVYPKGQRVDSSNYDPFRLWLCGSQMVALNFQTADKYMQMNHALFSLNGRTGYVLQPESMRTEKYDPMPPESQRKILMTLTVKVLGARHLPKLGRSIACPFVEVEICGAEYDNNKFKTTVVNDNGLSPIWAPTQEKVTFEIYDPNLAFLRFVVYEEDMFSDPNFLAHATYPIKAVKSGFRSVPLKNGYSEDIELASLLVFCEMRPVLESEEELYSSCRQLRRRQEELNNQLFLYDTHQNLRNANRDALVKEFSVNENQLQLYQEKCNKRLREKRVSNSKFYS
Description: Using a dose range of 100-0.05 μM in 384 well low-volume polypropylene microtiter plates, a solution of PLCγ2 (final concentration 400 nM) was transferred to biochip arrays functionalized with a Tris-Ni-NTA-presenting self-assembled monolayer to immobilize the His-tagged protein. The arrays were incubated for 90 min in a humidified chamber to prevent evaporation and allow for specific immobilization of the His-PLCγ2 protein, along with any bound small molecules. The arrays were purified by a rapid <3 second gentle wash step with deionized ultra-filtered water and dried with compressed air. ASMS was performed using the reflector positive mode on an Aβ Sciex TOF-TOF 5800 System (Aβ Sciex, Framingham, MA).

[1] = Kinetic solubility in pH 7.4 phosphate buffer; assay type: physicochemical
Description: (§1) Physicochemical and ADME properties were determined using the following assays: microsomal stability intrinsic clearance (Clint) in mouse liver microsomal solution, MDCK permeability (Papp), protein binding (fu) in mouse plasma, and kinetic solubility in pH 7.4 phosphate buffer (Table 7).

[2] = Protein binding in mouse plasma; assay type: in vitro ADME
Description: as §1

MDCK = MDCK permeability; assay type: in vitro ADME; details: estimate of intestinal absorption
Description: as §1

HiBit only = test: Cellular thermal shift assay (CETSA), HiBit only control; assay type: cell-based, human; details: for HiBit only %, percent luminescence at highest dose with HiBit only compared to control (DMSO): 100 μM
[3] = Microsomal stability intrinsic clearance; assay type: in vitro ADME; details: mouse liver microsomes
Description: as §1

Cc1cc(C)c(S(=O)(=O)Nc2cccc(C(F)(F)F)c2)c(C)c1 [Compound 1, 2,4,6-trimethyl-N-(meta-3-trifluoromethyl-phenyl)-benzenesulfonamide, reference compound]
target engagement, signal against background (His-PLCγ2 protein): neither 1 or 2 indicated substantial evidence of target engagement
Kinetic solubility [1]: 21 to 40 µM

Cc1cc(C)c(S(=O)(=O)Nc2ccccc2C(F)(F)F)c(C)c1 [Compound 2, o-3M3FBS, reference compound]
target engagement, signal against background (His-PLCγ2 protein): neither 1 or 2 indicated substantial evidence of target engagement

O=S(=O)(Nc1ccc(Br)cc1F)c1cccs1 [Compound 8]
fu, fraction unbound [2]: 0.0193
Papp, MDCK permeability (MDCK): 95.0 ×10−^6 cm/s
HiBit only %, percent luminescence at highest dose with HiBit only compared to control (DMSO) (HiBit only): 44%
HiBit only % @100 μM (HiBit only; Table 1, @100 μM): 44%
Clint, intrinsic clearance [3]: 77.83 µL/min/mg
Kinetic solubility [1]: >100 µM

Cc1cc(C)c(S(=O)(=O)NC2CCCNC2)c(C)c1 (stereo not shown) [Compound 11]
HiBit only %, percent luminescence at highest dose with HiBit only compared to control (DMSO) (HiBit only): 93%
